Assay results from PMC7083880 (Nature Communications, 2020).
Values joined by “and” are separate entries in the source; they are usually repeats but may differ in a detail not shown here. Identical values can stand only once.

Key:
[1] = test system: firefly luciferase (Fluc) gene with UAA nonsense codon at position 109 in HeLa cells; experiment: Firefly luciferase readthrough assay, UAA PTC construct; assay type: cell-based, human
[2] = test system: wild-type TP53 in HeLa cells; experiment: p53 function: luciferase under promoter with two p53-responsive elements, HeLa; assay type: cell-based, human
FTSJ1 [3] = target: T1, FTSJ1 (Homo sapiens, UniProt Q9UET6); experiment: UGA readthrough luciferase assay with FTSJ1 overexpression; assay type: cell-based
T1 construct: host or cells: HeLa
T1 sequence (Q9UET6 1-329): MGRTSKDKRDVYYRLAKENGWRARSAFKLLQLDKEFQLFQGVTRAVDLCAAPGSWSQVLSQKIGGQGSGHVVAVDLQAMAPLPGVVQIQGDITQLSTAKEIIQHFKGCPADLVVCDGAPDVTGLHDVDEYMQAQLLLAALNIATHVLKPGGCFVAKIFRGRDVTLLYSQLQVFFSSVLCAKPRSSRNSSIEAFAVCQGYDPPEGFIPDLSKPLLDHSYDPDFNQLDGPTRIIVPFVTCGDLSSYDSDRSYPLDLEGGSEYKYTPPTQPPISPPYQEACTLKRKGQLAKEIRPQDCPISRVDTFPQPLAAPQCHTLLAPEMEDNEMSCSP
Source text: (§1) Firefly luciferase from HEK293FT cells transfected with the Fluc-int-UGA construct was immunoprecipitated and digested with trypsin. The MS/MS spectrum of the peptide containing the PTC position and the sequence determination are shown. The upper red and blue sequences indicate the amino acids validated, respectively, by detection of Nter and Cter peptide fragments (b and y ion series). Peptide fragments y6 and y7 clearly identify tryptophan (W) at the PTC position. The black peaks correspond to non-attributed mass-to-charge ratio (m/z) values. […] Readthrough efficiency was determined by measuring luciferase activity in HeLa cells co-transfected with the firefly luciferase construct described in Fig. 1b and with increasing amounts of an expression vector for either FTSJ1 or CTU1 (0.5, 1, or 2 µg). The empty expression vector (E.v.) was used as control. […] The experiment was performed twice and the results of both experiments (Exp1 and Exp2) are shown. c Western blot analysis of FTSJ1 and CTU1. d 2′-O-methylation analysis of tRNA^Trp, tRNA^SER, and tRNA^GLN by RiboMethSeq. […] A molecular weight marker is indicated to the left of each gel. p-values (p) were calculated using Student’s t-test. Source data are provided as a Source Data file.
Among the enzymes modifying tRNAs liable to recognize a stop codon by extended wobbling, human FTSJ1 (TRM7 in yeast) exclusively modifies tRNAs involved in UGA readthrough. In addition to other tRNA targets, FTSJ1 methylates the cytosine at position 34 of tRNA^Trp. Inhibition of this modification could increase the capacity of tRNA^Trp to misdecode and recognize the UGA stop codon. […] FTSJ1 and CTU1 overexpression were assessed by western-blot analysis (Fig. 5c).

FTSJ1 [4] = target: T1, FTSJ1; experiment: DAP affinity column chromatography; assay type: binding; conditions: HeLa cell extract
Source text: as §1
The eluate was analyzed by western blotting for the presence of various proteins, including FTSJ1. […]

## Nc1nc(N)c2[nH]cnc2n1 [DAP, 2,6-diaminopurine]
[1]; DAP 3.75µM, average of 2 experiments
  Luciferase activity, UAA PTC: 370.75±86 and 370.75
[1]; DAP 3.75µM, experiment 1
  Luciferase activity, UAA PTC: 310
[1]; DAP 3.75µM, experiment 2
  Luciferase activity, UAA PTC: 431.5
[1]; DAP 37.5µM, average of 2 experiments
  Luciferase activity, UAA PTC: 610.75±408 and 610.75
[1]; DAP 37.5µM, experiment 1
  Luciferase activity, UAA PTC: 322.5
[1]; DAP 37.5µM, experiment 2
  Luciferase activity, UAA PTC: 899
[2]; 6.25µM, FL922
  Luciferase activity, p53-responsive promoter construct (DMSO = 1): 0.8852
[2]; 6.25µM, FL932
  Luciferase activity, p53-responsive promoter construct (DMSO = 1): 0.9803
[2]; 6.25µM, FL934
  Luciferase activity, p53-responsive promoter construct (DMSO = 1): 0.8382
[2]; 6.25µM, average
  Luciferase activity, p53-responsive promoter construct (DMSO = 1): 0.9012
[2]; 25µM, FL922
  Luciferase activity, p53-responsive promoter construct (DMSO = 1): 0.7844
[2]; 25µM, FL932
  Luciferase activity, p53-responsive promoter construct (DMSO = 1): 0.8921
[2]; 25µM, FL934
  Luciferase activity, p53-responsive promoter construct (DMSO = 1): 1.092
[2]; 25µM, average
  Luciferase activity, p53-responsive promoter construct (DMSO = 1): 0.9228
[2]; wild-type TP53
  Luciferase activity under p53-responsive promoter, in words: failure of DAP to cause a luciferase activity increase
FTSJ1 [3]; 0.5µg FTSJ1, 0.39µM
  luciferase activity, average: 904.125
  luciferase activity, exp1: 632.5
  luciferase activity, exp1*1,5: 948.75
  luciferase activity, exp2: 859.5
FTSJ1 [3]; 0.5µg FTSJ1, 0.78µM
  luciferase activity, average: 1247.62
  luciferase activity, exp1: 776.5
  luciferase activity, exp1*1,5: 1164.75
  luciferase activity, exp2: 1330.5
FTSJ1 [3]; 0.5µg FTSJ1, 1.56µM
  luciferase activity, average: 1901
  luciferase activity, exp1: 1287
  luciferase activity, exp1*1,5: 1930.5
  luciferase activity, exp2: 1871.5
FTSJ1 [3]; 0.5µg FTSJ1, 6.25µM
  luciferase activity, average: 9598.75
  luciferase activity, exp1: 3517
  luciferase activity, exp1*1,5: 5275.5
  luciferase activity, exp2: 13922
FTSJ1 [3]; 0.5µg FTSJ1, 25µM
  luciferase activity, average: 34831.4
  luciferase activity, exp1: 13760.5
  luciferase activity, exp1*1,5: 20640.8
  luciferase activity, exp2: 49022
FTSJ1 [3]; 0.5µg FTSJ1, 100µM
  luciferase activity, average: 81250
  luciferase activity, exp1: 48276
  luciferase activity, exp1*1,5: 72414
  luciferase activity, exp2: 90086
FTSJ1 [3]; 0.5µg FTSJ1, 300µM
  luciferase activity, average: 102352
  luciferase activity, exp1: 48428.5
  luciferase activity, exp1*1,5: 72642.8
  luciferase activity, exp2: 132062
FTSJ1 [3]; 0.5µg FTSJ1, 600µM
  luciferase activity, average: 91333.2
  luciferase activity, exp1: 34760
  luciferase activity, exp1*1,5: 52140
  luciferase activity, exp2: 130526
FTSJ1 [3]; 1µg FTSJ1, 0.39µM
  luciferase activity, average: 825.625
  luciferase activity, exp1: 545.5
  luciferase activity, exp1*1,5: 818.25
  luciferase activity, exp2: 833
FTSJ1 [3]; 1µg FTSJ1, 0.78µM
  luciferase activity, average: 1113.62
  luciferase activity, exp1: 667.5
  luciferase activity, exp1*1,5: 1001.25
  luciferase activity, exp2: 1226
FTSJ1 [3]; 1µg FTSJ1, 1.56µM
  luciferase activity, average: 1547.75
  luciferase activity, exp1: 877
  luciferase activity, exp1*1,5: 1315.5
  luciferase activity, exp2: 1780
FTSJ1 [3]; 1µg FTSJ1, 6.25µM
  luciferase activity, average: 5589
  luciferase activity, exp1: 2330
  luciferase activity, exp1*1,5: 3495
  luciferase activity, exp2: 7683
FTSJ1 [3]; 1µg FTSJ1, 25µM
  luciferase activity, average: 18207.6
  luciferase activity, exp1: 6784.5
  luciferase activity, exp1*1,5: 10176.8
  luciferase activity, exp2: 26238.5
FTSJ1 [3]; 1µg FTSJ1, 100µM
  luciferase activity, average: 59739.5
  luciferase activity, exp1: 25052
  luciferase activity, exp1*1,5: 37578
  luciferase activity, exp2: 81901
FTSJ1 [3]; 1µg FTSJ1, 300µM
  luciferase activity, average: 78923.5
  luciferase activity, exp1: 30654
  luciferase activity, exp1*1,5: 45981
  luciferase activity, exp2: 111866
FTSJ1 [3]; 1µg FTSJ1, 600µM
  luciferase activity, average: 72130.6
  luciferase activity, exp1: 22687.5
  luciferase activity, exp1*1,5: 34031.2
  luciferase activity, exp2: 110230
FTSJ1 [3]; 2µg FTSJ1, 0.39µM
  luciferase activity, average: 748.25
  luciferase activity, exp1: 541
  luciferase activity, exp1*1,5: 811.5
  luciferase activity, exp2: 685
FTSJ1 [3]; 2µg FTSJ1, 0.78µM
  luciferase activity, average: 885.625
  luciferase activity, exp1: 619.5
  luciferase activity, exp1*1,5: 929.25
  luciferase activity, exp2: 842
FTSJ1 [3]; 2µg FTSJ1, 1.56µM
  luciferase activity, average: 1120.12
  luciferase activity, exp1: 798.5
  luciferase activity, exp1*1,5: 1197.75
  luciferase activity, exp2: 1042.5
FTSJ1 [3]; 2µg FTSJ1, 6.25µM
  luciferase activity, average: 2590.25
  luciferase activity, exp1: 1505
  luciferase activity, exp1*1,5: 2257.5
  luciferase activity, exp2: 2923
FTSJ1 [3]; 2µg FTSJ1, 25µM
  luciferase activity, average: 6098.62
  luciferase activity, exp1: 3067.5
  luciferase activity, exp1*1,5: 4601.25
  luciferase activity, exp2: 7596
FTSJ1 [3]; 2µg FTSJ1, 100µM
  luciferase activity, average: 13866.6
  luciferase activity, exp1: 8407.5
  luciferase activity, exp1*1,5: 12611.2
  luciferase activity, exp2: 15122
FTSJ1 [3]; 2µg FTSJ1, 300µM
  luciferase activity, average: 32953.2
  luciferase activity, exp1: 15279
  luciferase activity, exp1*1,5: 22918.5
  luciferase activity, exp2: 42988
FTSJ1 [3]; 2µg FTSJ1, 600µM
  luciferase activity, average: 35768.5
  luciferase activity, exp1: 13538
  luciferase activity, exp1*1,5: 20307
  luciferase activity, exp2: 51230
FTSJ1 [3]; HeLa, pFluc-int-UGA
  Effect of FTSJ1 overexpression on DAP-promoted readthrough: strongly reduce DAP-promoted readthrough
FTSJ1 [4]
  Binding to FTSJ1 (affinity column, western blot of eluate): binds to FTSJ1
